This note sets out measurements from publication PMC10272112 (Nature Communications, 2023).

The test system of the test is MIER1. Briefly: Chemoproteomic competition pulldown assay (HDAC interactor). The following applies: iQ, SW620 lysate. The format is binding. As to the method: To identify proteins directly bound by lipoic acid, we employed a chemoproteomic competition assay. Briefly, (R/S)-LA was immobilized on sepharose beads via an amidation reaction to form an affinity matrix (abbreviated as iL; Fig. 1a). This affinity matrix can be incubated with cell lysate to pull down potential LA or LM target proteins and identify these targets via bottom-up proteomics. In a competition assay, free LA or LM were incubated with lysate at different concentrations before pulling down and quantifying target proteins. […] (Fig. 1b, see “Methods” for details). […] The lysate buffer used in this assay contains 1 mM DTT to mimic the intracellular reductive milieu and to reduce lipoic acid and LM. […] Additional competition assays performed in lung adenocarcinoma cell A549 lysate also identified HDAC1, HDAC2, and HDAC6 as targets (Supplementary Fig. 1b). Amongst the three cell lines tested, HDACs were the only confidently identified targets across the 1500–3000 proteins quantified in these assays. […] We validated the results by analogous pulldown competition assays using two other affinity matrices prepared via the immobilization of either the HDAC inhibitor Quisinostat (iQ) and an analog of the class IIa HDAC inhibitor Bürli’s 31[14] (iC)[12]. We have previously shown that these affinity matrices specifically bind to the active sites of HDACs and have used them for HDACi selectivity profiling. Indeed, binding of (R/S)-LA and (R/S)-LM to HDAC1, HDAC2, HDAC3, HDAC6, and, to a lesser extent, HDAC8 was confirmed in these assays (Supplementary Fig. 1c, d). No binding to class IIa HDACs or the recently discovered common HDAC inhibitor off-target MBLAC2 was observed (Supplementary Fig. 1e)[12]. […] This observation might reflect electrostatic repulsion between the HDAC10 active site gate-keeper glutamic acid residues[15],[16] and the terminal carboxylic acid of LA.
To assess the degree of protein depletion from lysates by the affinity matrix, a second pulldown (PDPD) with fresh beads was performed using the unbound protein fraction from the vehicle control flow through. The beads were washed (1 × 1 mL of lysis buffer without inhibitors and only 0.4% Igepal, 2 × 2 mL of lysis buffer without inhibitors and only 0.2% Igepal), and captured proteins were denatured with 8 M urea buffer, alkylated with 55 mM chloroacetamide and digested with Trypsin according to standard procedures. The resulting peptides were desalted on a C18 filter plate (Sep-Pak® tC18 µElution Plate, Waters), vacuum dried, and stored at −20 °C until LC–MSMS measurement.
For the competition assays, relative binding was calculated based on the protein intensity ratio to the DMSO control for every single inhibitor concentration. EC50 values were derived from a four-parameter log-logistic regression with variable slope (constrain: bottom > 0). The obtained EC50 values were multiplied with a protein-dependent correction factor (cf), resulting in the apparent Kd value (Kd^app). The correction factor is determined by calculating the ratio of the protein intensity of two consecutive pulldowns of the vehicle control sample[13]. Targets of the inhibitors were annotated manually according to published procedures[12],[46],[47]. […] Additionally, the number of unique peptides and MSMS counts per condition were taken into account. Positive target binding across several independent experiments performed with different cell lysates further substantiated our confidence for a true positive drug-target binding event.

Molecules are shown by their SMILES.

As to `O=C(O)CCCCC1CCSS1` (racemic) [(R/S)-LA, (R/S)-lipoic acid], the “relative binding vs DMSO” value amounted to 0.1271 (log10 M -3.52288); 0.313 (log10 M -4); 0.5121 (log10 M -4.52288); 0.4151 (log10 M -5); 0.7821 (log10 M -5.52288); 0.8468 (log10 M -6). The “relative binding vs DMSO” value came out at 1.155 (log10 M -6.52288) and 0.8632 (log10 M -7).
Consider `NC(=O)CCCCC1CCSS1` (racemic) [(R/S)-LM, (R/S)-lipoamide], for which the “relative binding vs DMSO” value reads like this: (log10 M -3.52288) 0.1808; (log10 M -4) 0; (log10 M -4.52288) 0.3328; (log10 M -5) 0.7626; (log10 M -5.52288) 0.9557; (log10 M -6) 1.104. In addition, the “relative binding vs DMSO” value came to 0.974 (log10 M -6.52288) and 1.319 (log10 M -7).
